Experimental data taken from patent publication US20230131111A1, “BIODEGRADABLE POLYIMIDAZOLIUMS AND OLIGOIMIDAZOLIUMS” (Nanyang Technological University, priority 2020, published 2023).

Assays:
[1] = system: MDR A. baumannii AB-1; assay: Murine septicemia model; type: in vivo, BALB/c mice; conditions: single dose 15 mg/kg
Experimental: (§1) Murine septicemia model was used to evaluate the in vivo efficacy of PIM1D. The experiment for mice septicemia infection model of MDR P. aeruginosa PAER and MDR A. baumannfi AB-1 was conducted within guidance of approved protocol by the Institutional Care and Use Committee of Nanyang Technological University (NTU IACUC). The experiments for murine septicemia infection model of wild type P. aeruginosa PAO1 and methicillin-resistant S. aureus MRSA USA300 were conducted following protocol reviewed and approved by Animal Ethics and Welfare Committee (AEWC) of Ningbo University. BALB/c female mice (8-9 weeks of age) were used to test the septic shock protection efficacy for all murine infection models. Exponential phase bacteria were washed twice with saline, and re-suspended into the same volume of saline. 300 μL bacterial suspension with varied concentration in 5% mucin was introduced into each mouse via IP injection to first determine the lethal bacterial dosage, and the determined concentration was then used in the following study. […] Mouse survival was monitored over 7 days. […] Bacterial loads were also evaluated in the spleen, liver and kidney of the animal. […] The bacterial levels were analyzed with one-way classification analysis of variance (ANOVA) and two-tailed student's t-test (Graphpad Prism for Windows, version 7).

[2] = system: P. aeruginosa PAO1; assay: Laboratory evolution of resistance, sequential passage; conditions: 30 days of passage
[3] = system: MRSA USA300; assay: Neutropenic lung infection model; type: in vivo, BALB/c mice; conditions: 20 mg/kg intratracheal, one week
Experimental: (§2) Immunosuppression was induced by IP injection of cyclophosphamide (150 mg/kg) at day 4 and cyclophosphamide (100 mg/kg) at day 1 into BALB/c female mice (8-9 weeks of age) before infection was introduced. Lung infection was established by intratracheal delivery of MRSA USA300 or K. pneumoniae (#13883). […] The mice were monitored for survival over one week. In a separate experiment, mice lungs were harvested 26 h post-infection and homogenized, followed by plating to check the bacterial burden. The animal study protocols were approved by animal ethics and welfare committee at Ningbo University.

[4] = system: methicillin-resistant S. aureus MRSA USA300; assay: Murine septicemia model, immunosuppressed mice; type: in vivo, BALB/c mice; conditions: 15 mg/kg IP at 2 h and 26 h post-infection
Experimental: as §1, with “7). […]” for “7).”

[5] = system: HepG2 cells; assay: Mammalian cell cytotoxicity, MTT; type: cell-based, Human
[6] = system: P. aeruginosa PAES (clinical); assay: MIC90 broth microdilution; type: cell-based, Pseudomonas aeruginosa
[7] = system: A. baumannii X40 (EDR); assay: MIC90 broth microdilution; type: cell-based, Acinetobacter baumannii
[8] = system: A. baumannii X26; assay: MIC90 broth microdilution; type: cell-based, Acinetobacter baumannii; parameters: MIC90 A. baumanii X26 (MDR): unit not given here
[9] = system: HEK293 cells; assay: Mammalian cell cytotoxicity, MTT; type: cell-based, Human
[10] = system: A. baumannii AB-1 (MDR); assay: MIC90 broth microdilution; type: cell-based, Acinetobacter baumannii
[11] = system: E. coli 958 (MDR); assay: MIC90 broth microdilution; type: cell-based, Escherichia coli
[12] = system: K. pneumoniae (#13883); assay: Neutropenic lung infection model; type: in vivo, BALB/c mice
Experimental: as §2

[13] = system: E. cloacae CRE (MDR); assay: MIC90 broth microdilution; type: cell-based, Enterobacter cloacae
[14] = system: K. pneumoniae BAK085 (MDR); assay: MIC90 broth microdilution; type: cell-based, Klebsiella pneumoniae
[15] = system: K. pneumoniae SGH10 (clinical strain); assay: MIC90 broth microdilution; type: cell-based, Klebsiella pneumoniae
[16] = system: E. cloacae ECLOS (MDR); assay: MIC90 broth microdilution; type: cell-based, Enterobacter cloacae
[17] = system: K. pneumoniae KPNR (MDR); assay: MIC90 broth microdilution; type: cell-based, Klebsiella pneumoniae
[18] = system: P. aeruginosa PAO1; assay: MIC90 broth microdilution; type: cell-based, Pseudomonas aeruginosa
[19] = system: A549 cells; assay: Mammalian cell cytotoxicity, MTT; type: cell-based, Human
[20] = system: A. baumannii X39; assay: MIC90 broth microdilution; type: cell-based, Acinetobacter baumannii; parameters: MIC90 A. baumanii X39 (XDR): unit not given here
[21] = system: Burkholderia thailandensis 700388; type: cell-based; parameters: MIC90 Burkholderia thailandensis 700388: unit not given here; conditions: for MIC90 Burkholderia thailandensis 700388: naturally colistin-resistant
[22] = system: P. aeruginosa PAO1; assay: Propidium iodide (PI) staining; type: cell-based, Pseudomonas aeruginosa; conditions: 1 h incubation
Experimental: P. aeruginosa PAO1 was used in the PI experiments. Cells grown in MHB were harvested in mid-Log phase and resuspended in fresh MHB. PIM1 or colistin (positive control) was added at the indicated concentrations. After 1-hour incubation with the antimicrobials, the cell suspensions were sampled to determine cells numbers by plate counting. The remaining cells were washed with PBS and stained with PI (15 μg/mL) according to the manufacturer's protocol. Attune N×T Flow cytometry (Thermo Fisher Scientific, USA) was used to determine the percent of cells that had taken up PI (dead cells). A Zeiss LSM800 confocal microscope was used to image cells on a polylysine-coated petri-dish (MatTek Corporation, USA).

[23] = system: P. aeruginosa PAER; assay: MIC90 broth microdilution; type: cell-based, Pseudomonas aeruginosa
[24] = system: K. pneumoniae M7 (MDR); assay: MIC90 broth microdilution; type: cell-based, Klebsiella pneumoniae
[25] = system: 3T3 cells; assay: Mammalian cell cytotoxicity, MTT; type: cell-based, Mouse; conditions: half-maximal inhibition of cell viability
[26] = system: P. aeruginosa PAK pmrB12; assay: MIC90 broth microdilution; type: cell-based, Pseudomonas aeruginosa
[27] = system: P. aeruginosa PAO1; assay: Killing of stationary phase bacteria; type: cell-based, Pseudomonas aeruginosa
Excerpt: We used a previously reported method (S. Meylan et al., Cell Chem. Biol. 2017, 24, 195-206) to determine the effect of PIM1 and other antibiotics on the survival of stationary phase P. aeruginosa PAO1, except the stationary-phase cells were obtained by overnight growth in MHB, and we compared PIM1 with GEN. The results were compared to those with P. aeruginosa PAO1 harvested from MHB culture at the mid-Log growth phase. In addition, we tested the ability of an energy source to potentiate PIM1 killing of stationary-phase P. aeruginosa by addition of fumarate (15 mM) to the stationary-phase cells.

[28] = system: P. aeruginosa PAO1; assay: Membrane electric potential, DiS-C3-(5); type: cell-based, Pseudomonas aeruginosa; conditions: 30 min after addition
Experimental: Agents Chemother. 2000, 44, 3317-3321). […] The cell suspension (180 μL) was then added to each well of a 96-well plate, and the test compounds were added to the wells as indicated to bring the final mixture to 200 μL. Fluorescence was measured in each well every 2 min in a Spark 10M microtiter plate reader (Tecan, Switzerland) with excitation at 622 nm and emission 670 nm. Data were collected at 30 min after the addition of the test compound. Two independent experiments were conducted, and the data here are mean values±SD.

[29] = system: S. aureus USA300 (MRSA); assay: MIC90 broth microdilution; type: cell-based, Staphylococcus aureus
[30] = system: S. aureus BAA40 (MRSA); assay: MIC90 broth microdilution; type: cell-based, Staphylococcus aureus; parameters: unit not given here
[31] = system: Mycobacterium bovis bacillus Calmette-Guérin; type: cell-based
[32] = system: E. faecalis 583 (VRE); assay: MIC90 broth microdilution; type: cell-based, Enterococcus faecalis; parameters: unit not given here
[33] = half-maximal inhibition of cell viability

## C[C@@H](O)[C@H]1C(=O)N2C(C(=O)O)=C(SCCN=CN)C[C@H]12 [Imp, Imipenem]
[1]
  survival: 80%

## O=C(O)c1cn(C2CC2)c2cc(N3CCNCC3)c(F)cc2c1=O [ciprofloxacin]
[2]
  emergence of resistant mutants: ciprofloxacin-resistant mutants emerged

## CN[C@H](CC(C)C)C(=O)N[C@H]1C(=O)N[C@@H](CC(N)=O)C(=O)N[C@H]2C(=O)N[C@H]3C(=O)N[C@H](C(=O)N[C@H](C(=O)O)c4cc(O)cc(O)c4-c4cc3ccc4O)[C@H](O)c3ccc(c(Cl)c3)Oc3cc2cc(c3O[C@@H]2O[C@H](CO)[C@@H](O)[C@H](O)[C@H]2O[C@H]2C[C@](C)(N)[C@H](O)[C@H](C)O2)Oc2ccc(cc2Cl)[C@H]1O [vancomycin]
[3]
  survival: 40%
[4]
  survival: all mice survived

## colistin
[5]; MTT
  IC50 Human liver (HepG2): >1024 µg/mL
[5]; [33]
  IC50 Human liver (HepG2): >1024 μg per mL
[6]
  MIC90 P. aeruginosa PAES (clinical): 2 µg/mL
[7]
  MIC90 A. baumannii X40 (EDR): 8 µg/mL
[8]
  MIC90 A. baumanii X26 (MDR): 2
  MIC90 A. baumannii X26 (EDR): 2 µg/mL
[9]; MTT
  IC50 Human kidney (HEK293): 64 µg/mL
[9]; [33]
  IC50 Human kidney (HEK293): 64 μg per mL
[10]
  MIC90 A. baumanii AB-1 (MDR): 2 mg per mL
  MIC90 A. baumannii AB-1 (MDR): 2 µg/mL
[11]
  MIC90 E. coli 958 (MDR): 2 µg/mL
[12]; 20 mg/kg intratracheal, one week
  survival: survived
[12]; single 20 mg/kg intratracheal, versus infection control
  reduction of K. pneumoniae in lung: similar
[13]
  MIC90 E. cloacae CRE (MDR): 2 µg/mL
[14]
  MIC90 K. pneumoniae BAK085 (MDR): 2 µg/mL
[15]
  MIC90 K. pneumoniae SGH10 (clinical strain): 2 µg/mL
[16]
  MIC90 E. cloacae ECLOS (MDR): 16 µg/mL
[17]
  MIC90 K. pneumoniae KPNR (MDR): 2 µg/mL
[18]
  MIC90 P. aeruginosa PAO1: 2 µg/mL
[19]; MTT
  IC50 Human epithelial (A549): >1,024 μg/ml
[19]; [33]
  IC50 Human epithelial (A549): >1024 μg per mL
[20]
  MIC90 A. baumanii X39 (XDR): 4-8
  MIC90 A. baumannii X39 (EDR): 4 to 8 µg/mL
[21]
  MIC90 B. Thailandensis 700388: >128 µg/mL
  MIC90 Burkholderia thailandensis 700388: >128
[22]
  propidium iodide uptake: almost all cells treated with colistin were stained
[23]
  MIC90 P. aeruginosa PAER: 1 mg per mL
  MIC90 P. aeruginosa PAER (MDR): 1 µg/mL
[24]
  MIC90 K. pneumoniae M7 (MDR): 16 to 32 µg/mL
[25]
  IC50 Mouse fibroblast (3T3): >1024 μg per mL
[26]
  MIC90 P. aeruginosa PAK pmrB12: 16 µg/mL

## gentamicin
[27]; compared with killing by colistin, 4-h exposure
  susceptibility of stationary phase cells to killing: much less susceptible
[27]; fumarate 15 mM
  bactericidal activity on stationary-phase cells with fumarate: restored

## gramicidin
[28]
  DiS-C3-(5) fluorescence (dissipation of membrane potential): dramatic increase in DiS-C3-(5) fluorescence

## polymyxin B
[5]; [33]
  IC50 Human liver (HepG2): 765 μg per mL
[29]
  MIC90 S. aureus USA300 (MRSA): 64-128 mg per mL
[8]
  MIC90 A. baumanii X26 (MDR): 4
[9]; [33]
  IC50 Human kidney (HEK293): 240 μg per mL
[10]
  MIC90 A. baumanii AB-1 (MDR): 2 mg per mL
[30]
  MIC90 S. aureus BAA40 (MRSA): 64-128
[19]; [33]
  IC50 Human epithelial (A549): 879 μg per mL
[20]
  MIC90 A. baumanii X39 (XDR): 8
[21]
  MIC90 Burkholderia thailandensis 700388: >128
[31]
  MIC90 Mycobacterium bovis bacillus Calmette-Guérin: 64 mg per mL
[23]
  MIC90 P. aeruginosa PAER: 2 mg per mL
[32]
  MIC90 E. faecalis 583 (VRE): >128
[25]
  IC50 Mouse fibroblast (3T3): 920 μg per mL
